Assays:
Tyrosinase [1] = target: T1, Tyrosinase (Agaricus bisporus, UniProt O42713); experiment: Inhibition of mushroom tyrosinase incubated for 20 mins by spectrophotometric assay
T1 sequence (O42713 whole entry): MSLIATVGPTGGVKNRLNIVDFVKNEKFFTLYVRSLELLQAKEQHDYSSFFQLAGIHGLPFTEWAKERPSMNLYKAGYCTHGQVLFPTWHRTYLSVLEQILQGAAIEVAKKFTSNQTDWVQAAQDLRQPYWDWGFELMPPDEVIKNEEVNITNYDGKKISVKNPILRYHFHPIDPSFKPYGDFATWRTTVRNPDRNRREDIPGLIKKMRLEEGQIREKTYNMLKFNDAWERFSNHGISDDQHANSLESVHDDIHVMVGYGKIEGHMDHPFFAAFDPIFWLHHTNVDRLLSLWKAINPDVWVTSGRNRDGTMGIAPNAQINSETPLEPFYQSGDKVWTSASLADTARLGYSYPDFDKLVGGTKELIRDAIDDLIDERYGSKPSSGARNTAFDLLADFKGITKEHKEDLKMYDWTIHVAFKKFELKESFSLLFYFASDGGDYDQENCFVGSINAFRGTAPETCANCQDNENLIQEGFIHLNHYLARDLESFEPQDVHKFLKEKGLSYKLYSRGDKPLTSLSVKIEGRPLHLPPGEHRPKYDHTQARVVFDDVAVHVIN

B16-F10 = experiment: Inhibition of melanin production in mouse B16-F10 cells assessed reduction in melanin level measured after 72 hrs by ELISA assay relative to control; type: functional
Tyrosinase [2] = target: T1, Tyrosinase; experiment: Inhibition of mushroom tyrosinase using L-tyrosine as substrate assessed as monophenolase activity preincubated for 20 mins followed by substrate addition measured after 10 mins by plate reader analysis
Tyrosinase [3] = target: T1, Tyrosinase; experiment: Inhibition of mushroom tyrosinase using L-dopa as substrate assessed as diphenolase activity preincubated for 20 mins followed by substrate addition measured after 10 mins by plate reader analysis
Tyrosinase [4] = target: T1, Tyrosinase; experiment: Inhibition of mushroom tyrosinase using L-tyrosine as substrate preincubated for 15 mins followed by substrate addition measured after 30 mins by plate reader analysis
Tyrosinase [5] = target: T1, Tyrosinase; experiment: Inhibition of mushroom tyrosinase using L-DOPA as substrate incubated for 10 mins by spectrophotometric assay
Tyrosinase [6] = target: T1, Tyrosinase; experiment: Inhibition of mushroom tyrosinase using L-tyrosine as a substrate incubated for 10 mins
Tyrosinase [7] = target: T1, Tyrosinase; experiment: Inhibition of mushroom tyrosinase using L-dopa as substrate by spectrophotometric analysis
Tyrosinase [8] = target: T1, Tyrosinase; experiment: Inhibition of mushroom tyrosinase using L-DOPA as substrate preincubated for 10 mins followed by substrate addition measured after 20 mins by microtitre plate reader analysis
Tyrosinase [9] = target: T1, Tyrosinase
Description: Inhibition of mushroom tyrosinase using L-DOPA as substrate assessed as inhibition constant preincubated for 15 mins followed by substrate addition measured after 2 mins by microtitre plate reader analysis

Tyrosinase [10] = target: T1, Tyrosinase; experiment: Inhibition of mushroom tyrosinase using L-DOPA as substrate by HTS analysis
Tyrosinase [11] = target: T1, Tyrosinase; experiment: Inhibition of mushroom tyrosinase using L-DOPA as substrate preincubated for 10 mins followed by substrate addition measured after 5 mins
Tyrosinase [12] = target: T1, Tyrosinase; experiment: Inhibition of mushroom tyrosinase using L-DOPA as substrate preincubated for 10 mins followed by substrate addition measured after 20 mins
Tyrosinase [13] = target: T1, Tyrosinase; experiment: Inhibition of mushroom tyrosinase using L-dopa as substrate incubated for 30 mins by spectrophotometric analysis
Tyrosinase [14] = target: T1, Tyrosinase; experiment: Inhibition of mushroom tyrosinase using L-DOPA as substrate incubated for 30 mins
B16 = experiment: Anti-melanoma activity against mouse B16 cells assessed as inhibition of tyrosinase activity incubated for 48 hrs by spectrophotometer analysis relative to control; type: functional
Tyrosinase [15] = target: T1, Tyrosinase; experiment: Inhibition of mushroom tyrosinase using L-DOPA as substrate incubated for 20 mins by microplate reader analysis
[16] = Antioxidant activity assessed as DPPH radical scavenging activity incubated for 30 mins under dark condition by microplate reader analysis; type: functional
Tyrosinase [17] = target: T1, Tyrosinase; experiment: Inhibition of mushroom tyrosinase using L-DOPA as substrate assessed as diphenolase activity
Tyrosinase [18] = target: T1, Tyrosinase; experiment: Inhibition of mushroom tyrosinase using L-tyrosine as substrate assessed as monophenolase activity
Tyrosinase [19] = target: T1, Tyrosinase; experiment: Inhibition of mushroom tyrosinase using L-dopa as substrate incubated for 30 mins by microplate reader analysis
Tyrosinase [20] = target: T1, Tyrosinase; experiment: Inhibition of mushroom tyrosinase using L-DOPA as substrate incubated for 20 mins
Tyrosinase [21] = target: T1, Tyrosinase; experiment: Inhibition of mushroom tyrosinase using L-dopa as substrate assessed as monophenolase activity by microplate reader analysis
Tyrosinase [22] = target: T1, Tyrosinase; experiment: Inhibition of mushroom tyrosinase using L-tyrosine as substrate assessed as […] activity by microplate reader analysis
Tyrosinase [23] = target: T1, Tyrosinase; experiment: Inhibition of mushroom tyrosinase using L-DOPA as substrate incubated for 5 mins
Tyrosinase [24] = target: T1, Tyrosinase; experiment: Inhibition of mushroom tyrosinase using L-dopa as substrate assessed as inhibition constant incubated for 30 mins by spectrophotometric analysis
Mushroom tyrosinase [25] = target: T2, Mushroom tyrosinase (Agaricus bisporus, UniProt O42713+Q00024+C7FF04+C7FF05); experiment: Inhibition of mushroom diphenolase
Mushroom tyrosinase [26] = target: T2, Mushroom tyrosinase; experiment: Inhibition of mushroom monophenolase
Tyrosinase [27] = target: T1, Tyrosinase; experiment: Inhibition of mushroom tyrosinase using L-DOPA as a substrate assessed as inhibition constant incubated for 5 mins by microplate reader analysis
Tyrosinase [28] = target: T1, Tyrosinase; experiment: Inhibition of mushroom tyrosinase using L-DOPA as substrate preincubated for 10 mins followed by substrate addition measured after 20 mins by microtitre plate analysis
Tyrosinase [29] = target: T1, Tyrosinase; experiment: Inhibition of mushroom tyrosinase using L-DOPA as substrate incubated for 10 mins
Tyrosinase [30] = target: T1, Tyrosinase; experiment: Inhibition of mushroom tyrosinase using L-tyrosine as substrate assessed as […] activity incubated for 20 mins by microplate reader analysis
Tyrosinase [31] = target: T1, Tyrosinase; experiment: Inhibition of mushroom tyrosinase using L-DOPA as substrate assessed as monophenolase activity incubated for 20 mins by microplate reader analysis
[32] = Antioxidant activity assessed as DPPH radical scavenging activity incubated for 30 mins under dark condition; type: functional
Tyrosinase [33] = target: T1, Tyrosinase; experiment: Inhibition of mushroom tyrosinase using L-dopa as substrate assessed as monophenolase activity incubated for 30 mins by spectrophotometric method
Tyrosinase [34] = target: T1, Tyrosinase; experiment: Inhibition of mushroom tyrosinase using L-dopa as substrate assessed as diphenolase activity incubated for 30 mins by spectrophotometric method
Tyrosinase [35] = target: T1, Tyrosinase; experiment: Inhibition of mushroom tyrosinase using L-DOPA as substrate assessed as inhibition constant preincubated with compound for 15 mins by microplate reader analysis
Tyrosinase [36] = target: T1, Tyrosinase; experiment: Inhibition of mushroom tyrosinase using L-DOPA as substrate preincubated with compound for 15 mins by microplate reader analysis
Tyrosinase [37] = target: T3, Tyrosinase (Homo sapiens, UniProt P14679); experiment: Inhibition of human his tagged tyrosinase expressed in HEK293 cells using L-DOPA as substrate incubated for 10 mins by microtitre plate reader analysis; type: cell-based
T3 sequence (P14679 whole entry): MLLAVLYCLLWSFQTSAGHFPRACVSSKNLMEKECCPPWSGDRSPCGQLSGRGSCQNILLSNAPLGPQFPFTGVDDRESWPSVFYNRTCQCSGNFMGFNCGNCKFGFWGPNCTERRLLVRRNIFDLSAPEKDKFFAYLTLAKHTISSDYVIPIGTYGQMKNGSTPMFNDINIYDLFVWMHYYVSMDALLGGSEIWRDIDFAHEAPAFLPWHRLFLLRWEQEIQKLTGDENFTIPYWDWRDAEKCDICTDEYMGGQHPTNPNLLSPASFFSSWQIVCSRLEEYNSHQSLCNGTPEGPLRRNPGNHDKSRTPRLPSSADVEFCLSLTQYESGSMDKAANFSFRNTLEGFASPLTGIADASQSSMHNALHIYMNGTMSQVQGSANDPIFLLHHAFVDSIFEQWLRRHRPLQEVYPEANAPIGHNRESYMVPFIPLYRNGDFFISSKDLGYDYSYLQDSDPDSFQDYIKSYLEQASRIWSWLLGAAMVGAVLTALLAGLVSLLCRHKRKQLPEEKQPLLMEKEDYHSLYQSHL

O=C(/C=C/c1cccc(Cl)c1)NCCN1CCOCC1
IC50 (Tyrosinase [1]): 15.2 µM

COc1ccc(-c2n[nH]c(S)n2)cc1
inhibition (INH) (B16-F10): 55%

N/C(S)=N/N=C/c1ccc([N+](=O)[O-])cc1
IC50 (Tyrosinase [2]): 0.05 µM | IC50 (Tyrosinase [3]): 1.74 µM

CCCCOC(=O)/C=C/c1ccc(O)cc1
IC50 (Tyrosinase [4]): 69 µM

CCOC(OCC)c1ccc(/C=C2\CCC/C(=C\c3ccc(C(OCC)OCC)cc3)C2=O)cc1
IC50 (Tyrosinase [5]): 10.1 µM

CCOC(OCC)c1ccc(/C=C2\Cc3ccccc3C2=O)cc1
IC50 (Tyrosinase [5]): 6.83 µM

CCOC(OCC)c1ccc(/C=C/C(=O)C2CCc3ccccc3C2=O)cc1 (stereo not drawn)
IC50 (Tyrosinase [5]): 5.84 µM

O=C(O)CSc1nnc(NC(=S)Nc2cccc(C(F)(F)F)c2)s1
IC50 (Tyrosinase [6]): 15 µM

O=C1CSC(c2ccccc2O)N1c1ccc(-c2ccc(N3C(=O)CSC3c3ccccc3O)cc2)cc1 (stereo not drawn)
IC50 (Tyrosinase [7]): 0.61 µM

COc1cc(C2CC(c3cc4ccccc4oc3=O)=NN2c2nc(-c3ccc(Br)cc3)cs2)ccc1OCc1ccccc1 (stereo not drawn)
IC50 (Tyrosinase [8]): < 0.1 µM

CCn1c2ccccc2c2cc(NC(=O)CSc3nc4ccccc4[nH]3)ccc21
Ki (Tyrosinase [9]): 1.64 µM

CC(C)C(=O)Nc1nc(-c2ccc(O)cc2O)cs1
IC50 (Tyrosinase [10]): 108 µM

Clc1ccc(Cn2cc(COc3ccc(-c4nc5ccccc5[nH]4)cc3)nn2)cc1Cl
IC50 (Tyrosinase [11]): 9.42 µM

Cc1ccc(C(C)C)cc1NC(=O)COC(=O)c1ccc(O)cc1O
IC50 (Tyrosinase [12]): 11 µM

COc1cc([N+](=O)[O-])ccc1/C=C/C(=N\O)c1cc2ccccc2cc1O
IC50 (Tyrosinase [13]): 4.77 µM

O=C(COC(=O)c1ccc(O)cc1O)Oc1ccc2oc(=O)ccc2c1
IC50 (Tyrosinase [14]): 8.96 µM

CC(=O)Nc1ccc(/N=N/c2c(N)nc(N)nc2Cl)cc1
IC50 (Tyrosinase [11]): 24.4 µM

CC(=O)OC[C@H]1O[C@@H](Oc2ccc(O)cc2)[C@H](O)[C@@H](O)[C@@H]1O
inhibition (INH) (B16): 71.4%

Cc1cc(OCc2cn(Cc3ccc(F)cc3)nn2)c(C=C2C(=O)NC(=S)NC2=O)cc1Br
IC50 (Tyrosinase [15]): 24.6 µM | EC50 [16]: 39.2 µM

O=C(OCc1cc(=O)c(O)c[nH]1)[C@H](Cc1ccccc1)NCc1ccccc1
IC50 (Tyrosinase [17]): 8.97 µM | IC50 (Tyrosinase [18]): 1.95 µM

O=C1/C(=C/c2ccc(O)c(Br)c2)CSc2ccccc21
IC50 (Tyrosinase [19]): 4.1 µM

OCC1CSC(c2ccc(O)cc2O)S1 (stereo not drawn)
IC50 (Tyrosinase [19]): 13.9 µM

COc1cc(/C=N/NC(=O)c2ccc(O)c(OC)c2)ccc1O
IC50 (Tyrosinase [20]): 10 µM

COc1ccccc1/C=C/C=N/Nc1nnc(SCc2cc(=O)c(O)co2)n1C
IC50 (Tyrosinase [21]): 20.5 µM | IC50 (Tyrosinase [22]): 7.5 µM

OC[C@H]1O[C@H](Oc2cc(O)cc(CCc3ccc(O)cc3O)c2)[C@H](O)[C@@H](O)[C@@H]1O
IC50 (Tyrosinase [23]): 2.63 µM

O=C1/C(=C/c2ccc(O)cc2O)Cc2ccccc21
Ki (Tyrosinase [24]): 2.4 µM | IC50 (Tyrosinase [13]): 1.39 µM

CCN(CC)c1ccc(Nc2nc(-c3ccc(O)cc3O)cs2)cc1
IC50 (Mushroom tyrosinase [25]): 10.3 µM | IC50 (Mushroom tyrosinase [26]): 6.2 µM

Oc1ccc(/C=N\n2c(Cc3ccccc3F)n[nH]c2=S)cc1
IC50 (Tyrosinase [15]): 6.23 µM

CC1(C)CC(=O)C2=C(C1)Oc1c(oc(CCl)cc1=O)C2c1ccc(F)cc1 (stereo not drawn)
Ki (Tyrosinase [27]): 4 µM

OC[C@H]1O[C@H](Oc2cc(CCc3ccc(O)cc3O)cc(O[C@H]3O[C@H](CO)[C@@H](O)[C@H](O)[C@H]3O)c2)[C@H](O)[C@@H](O)[C@@H]1O
IC50 (Tyrosinase [23]): 12.8 µM

Cc1ccc(C(C)C)cc1NC(=O)COC(=O)/C=C/c1ccc(O)cc1O
IC50 (Tyrosinase [28]): 0.15 µM

COc1cc(/C=C/C(=O)c2ccc(OC)c(OC)c2)ccc1O
IC50 (Tyrosinase [29]): 0.038 µM

CCOc1cc(/C=N/NC(=O)c2ccc(O)c(OC)c2)ccc1O
IC50 (Tyrosinase [20]): 1.58 µM

O=C(/C=C/c1ccc(O)cc1O)c1cccs1
IC50 (Tyrosinase [30]): 0.013 µM | IC50 (Tyrosinase [31]): 0.93 µM

Nn1c(S)nnc1N/N=C\c1ccccc1O
IC50 (Tyrosinase [15]): 1.52 µM

CCOC(=O)C1=C(N)Oc2c(ccc3ccccc23)C1c1ccc(N(C)C)cc1 (stereo not drawn)
EC50 [32]: 0.94 mM/L

O=C1N=C(Nc2nc3ccccc3s2)S/C1=C\c1ccc(O)cc1O
IC50 (Tyrosinase [19]): 1.8 µM

COc1cc(CC2C(=O)Nc3ccccc32)ccc1O (stereo not drawn)
IC50 (Tyrosinase [33]): 63.4 µM | IC50 (Tyrosinase [34]): 59.7 µM

O=C1OC(c2ccccc2Br)=NC(=S)C1c1nn[nH]n1 (stereo not drawn)
IC50 (Tyrosinase [8]): < 0.1 µM

Cc1ccc(NC(=O)CCCN2CCN(C/C=C/c3ccccc3)CC2)c(C)c1
IC50 (Tyrosinase [8]): < 0.1 µM

COc1cccc2c1c(C(=O)C(=O)Nc1cc[nH]n1)cn2Cc1ccc(F)cc1
IC50 (Tyrosinase [29]): 224 µM

O=P(O)(c1ccccc1)C(NCc1ccccc1)c1ccccn1 (stereo not drawn)
Ki (Tyrosinase [35]): 76 µM | IC50 (Tyrosinase [36]): 310 µM

COc1ccccc1-n1c(SCC(=O)Nc2ccc(Br)cc2)nnc1-c1ccccc1
IC50 (Tyrosinase [8]): < 0.1 µM

COc1cc(/C=C/C(=O)c2cc(OC)c(OC)c(-c3cc(C(=O)/C=C/c4ccc(O)c(OC)c4)cc(OC)c3OC)c2)ccc1O
IC50 (Tyrosinase [29]): 0.022 µM

Nc1nc(-c2ccc(O)cc2O)cs1
EC50 (Tyrosinase [37]): 245 µM

Nc1ccccc1C(=O)O [ANTHRANILIC ACID]
IC50 (Mushroom tyrosinase [25]): 4.72 µM | IC50 (Mushroom tyrosinase [26]): 5.15 µM

OC[C@H]1O[C@@H](Oc2ccc(O)cc2)[C@H](O)[C@@H](O)[C@@H]1O [ARBUTIN]
inhibition (INH) (B16): 55.4%

O=C(O)/C=C/c1ccc(O)cc1 [COUMARIC ACID]
IC50 (Tyrosinase [4]): 296 µM
